Values joined by “and” are separate entries in the source; they are usually repeats but may differ in a detail not shown here. Identical values can stand only once.
Assays:
Plasmopara viticola = assay: Plasmopara test (grapevine) / protective; type: in vivo; settings: young grapevine plants, protective spray, 10 ppm active ingredient, evaluation 6 days after inoculation; 0% = control, 100% = no infection
Procedure: Plasmopara Test (Grapevine)/Protective
• Solvent: 24.5 parts by weight of acetone • 24.5 parts by weight of dimethylacetamide • Emulsifier: 1 part by weight of alkylaryl polyglycol ether
To produce a suitable active ingredient formulation, 1 part by weight of active ingredient is mixed with the stated amounts of solvent and emulsifier, and the concentrate is diluted with water to the desired concentration.
To test for protective efficacy, young plants are sprayed with the active ingredient formulation at the stated application rate. After the spray coating has dried on, the plants are inoculated with an aqueous spore suspension of Plasmopara viticola and then remain in an incubation cabin at approx. 20° C. and 100% relative air humidity for 1 day. Subsequently, the plants are placed in a greenhouse at approx. 21° C. and approx. 90% air humidity for 4 days. The plants are then moistened and placed in an incubation cabin for 1 day.
Evaluation follows 6 days after the inoculation. 0% means an efficacy which corresponds to that of the control, whereas an efficacy of 100% means that no infection is observed.
In this test, the following inventive compounds show, at an active ingredient concentration of 10 ppm, an efficacy of 70% or more: […]

Phytophthora infestans = type: in vivo; settings: young tomato plants, protective spray, 100 ppm active ingredient, evaluation 7 days after inoculation; 0% = control, 100% = no infection
[1] = logP by HPLC on reversed-phase columns (C 18), EEC directive 79/831 Annex V.A8; type: physicochemical; settings: LC-MS; for chromatographic logP: reversed-phase HPLC column (C18), read-out: Log P [a]; for chromatographic logP / Log P [a]: acidic range, pH 2.7, 0.1% aqueous formic acid and acetonitrile; for Log P [b]: neutral range, pH 7.8, 0.001 molar aqueous ammonium hydrogencarbonate and acetonitrile
Procedure: The logP values were measured according to EEC directive 79/831 Annex V.A8 by HPLC (High Performance Liquid Chromatography) on reversed-phase columns (C 18), using the methods below:
^[a] The LC-MS determination in the acidic range is effected at pH 2.7 with 0.1% aqueous formic acid and acetonitrile (contains 0.1% formic acid) as eluents; linear gradient from 10% acetonitrile to 95% acetonitrile.
^[b] The LC-MS determination in the neutral range is effected at pH 7.8 using 0.001 molar aqueous ammonium hydrogencarbonate solution and acetonitrile as eluents; linear gradient from 10% acetonitrile to 95% acetonitrile.
The calibration is effected with unbranched alkan-2-ones (having 3 to 16 carbon atoms) with known logP values (logP values determined on the basis of the retention times by linear interpolation between two successive alkanones).

Cc1ccc(Cl)cc1NC(=O)N1CCC(c2nc(C3=NOC(c4ccccc4C=O)C3)cs2)CC1 (stereo not drawn) [Ex. 3, N-(5-Chloro-2-methylphenyl)-4-{4-[5-(2-formylphenyl)-4,5-dihydro-1,2-oxazol-3-yl]-1,3-thiazol-2-yl}piperidine-1-carboxamide]
Eff. % (Plasmopara viticola): 100% | Eff. % (Phytophthora infestans): 100% | chromatographic logP [1]: 3.35

O=C(Cn1nc(C(F)(F)F)cc1C(F)(F)F)N1CCC(c2nc(C3=NOC(c4ccccc4OCC4CC4)C3)cs2)CC1 (stereo not drawn) [Ex. 16]
Eff. % (Plasmopara viticola): 96% | Log P [a] [1]: 4.59[a]

Cc1cc(C(F)(F)F)nn1CC(=O)N1CCC(c2nc(C3=NOC(c4ccccc4C[S+](C)[O-])C3)cs2)CC1 (mixture of isomers) [Ex. 35]
Eff. % (Phytophthora infestans): 100% | Log P [a] [1]: 2.34[a]

Cc1cc(C(F)(F)F)nn1CC(=O)N1CCC(c2nc(C3=NOC(c4c(Cl)cccc4OC(=O)C4CC4)C3)cs2)CC1 (racemic) [Ex. 48]
Eff. % (Plasmopara viticola): 95% | Eff. % (Phytophthora infestans): 70% | Log P [a] [1]: 3.73[a]; | Log P [b] [1]: 3.64[b]

C=CCOc1ccccc1C1CC(c2csc(C3CCN(C(=O)Cn4nc(C)cc4C(F)F)CC3)n2)=NO1 (stereo not drawn) [Ex. 18]
Eff. % (Plasmopara viticola): 95% | Eff. % (Phytophthora infestans): 100% | Log P [a] [1]: 3.42[a]; | Log P [b] [1]: 3.33[b]

Cc1cc(C(F)(F)F)nn1CC(=O)N1CCC(c2nc(C3=NOC(c4ccccc4COCC(F)(F)F)C3)cs2)CC1 (racemic) [Ex. 43]
Eff. % (Plasmopara viticola): 83% | Eff. % (Phytophthora infestans): 97% | Log P [a] [1]: 3.77[a]

Cc1cc(C(F)(F)F)nn1CC(=O)N1CCC(c2nc(C3=NOC(c4ccccc4OCC4CC4)C3)cs2)CC1 (stereo not drawn) [Ex. 17]
Eff. % (Plasmopara viticola): 92% | Log P [a] [1]: 4.03[a]

C#CCOc1ccccc1C1CC(c2csc(C3CCN(C(=O)Nc4cc(C)ccc4C)CC3)n2)=NO1 (racemic) [Ex. 45]
Eff. % (Plasmopara viticola): 96% | Eff. % (Phytophthora infestans): 100% | Log P [a] [1]: 3.43[a]; | Log P [b] [1]: 3.41[b]

C=CCOc1ccccc1C1CC(c2csc(C3CCN(C(=O)Nc4cc(C)ccc4C)CC3)n2)=NO1 (racemic) [Ex. 46]
Eff. % (Plasmopara viticola): 98% | Eff. % (Phytophthora infestans): 100% | Log P [a] [1]: 3.91[a]; | Log P [b] [1]: 3.81[b]

CC#CCOc1cc(OC)ccc1C1CC(c2csc(C3CCN(C(=O)Cn4nc(C(F)F)cc4C)CC3)n2)=NO1 (stereo not drawn) [Ex. 15]
Log P [a] [1]: 3.28[a]

Cc1cc(C(F)(F)F)nn1CC(=O)N1CCC(c2nc(C3=NOC(c4ccccc4C=O)C3)cs2)CC1 (stereo not drawn) [Ex. 7, 2-{3-[2-(1-{[5-Methyl-3-(trifluoromethyl)-1H-pyrazol-1-yl]acetyl}piperidin-4-yl)-1,3-thiazol-4-yl]-4,5-dihydro-1,2-oxazol-5-yl}benzaldehyde]
Eff. % (Plasmopara viticola): 100% | Eff. % (Phytophthora infestans): 100% | chromatographic logP [1]: 3.12

Cc1cc(C(F)(F)F)nn1CC(=O)N1CCC(c2nc(C3=NOC(c4cccc(F)c4OC(=O)C4CC4)C3)cs2)CC1 (racemic) [Ex. 54]
Eff. % (Plasmopara viticola): 91% | Eff. % (Phytophthora infestans): 94% | Log P [a] [1]: 3.62[a]; | Log P [b] [1]: 3.5[b]

C=CCOc1cccc(C2CC(c3csc(C4CCN(C(=O)Cn5nc(C(F)(F)F)cc5C)CC4)n3)=NO2)c1 (racemic) [Ex. 41]
Eff. % (Plasmopara viticola): 78% | Eff. % (Phytophthora infestans): 98% and 97% | Log P [a] [1]: 3.62[a]; | Log P [b] [1]: 3.68[b];

C#CCOc1cccc(Cl)c1C1CC(c2csc(C3CCN(C(=O)Nc4cc(C)ccc4C)CC3)n2)=NO1 (racemic) [Ex. 38]
Eff. % (Plasmopara viticola): 100% | Eff. % (Phytophthora infestans): 94% | Log P [a] [1]: 3.68[a]; | Log P [b] [1]: 3.57[b]

C#CCOc1cc(Cl)ccc1C1CC(c2csc(C3CCN(C(=O)Cn4nc(C(F)F)cc4C)CC3)n2)=NO1 (stereo not drawn) [Ex. 20]
Log P [a] [1]: 3.37[a]; | Log P [b] [1]: 3.36[b]

Cc1cc(C(F)(F)F)nn1CC(=O)N1CCC(c2nc(C3=NOC(c4cccc(C=O)c4)C3)cs2)CC1 (stereo not drawn) [Ex. 1]
Eff. % (Plasmopara viticola): 98% | Eff. % (Phytophthora infestans): 100% | Log P [a] [1]: 2.83[a]

C=CCOc1cccc(Cl)c1C1CC(c2csc(C3CCN(C(=O)Nc4cc(Cl)ccc4C)CC3)n2)=NO1 (racemic) [Ex. 39]
Eff. % (Plasmopara viticola): 100% | Eff. % (Phytophthora infestans): 94% | Log P [a] [1]: 4.21[a]; | Log P [b] [1]: 4.11[b]

C#CCOc1ccc(F)c(C2CC(c3csc(C4CCN(C(=O)Cn5nc(C(F)(F)F)cc5C)CC4)n3)=NO2)c1F (stereo not drawn) [Ex. 8]
Eff. % (Plasmopara viticola): 100% | Eff. % (Phytophthora infestans): 100%

Cc1cc(C(F)F)nn1CC(=O)N1CCC(c2nc(C3=NOC(c4c(F)cccc4OCC4CC4)C3)cs2)CC1 (stereo not drawn) [Ex. 28]
Log P [a] [1]: 3.44[a]

C#CCOc1c(F)cccc1C1CC(c2csc(C3CCN(C(=O)Cn4nc(C(F)(F)F)cc4C)CC3)n2)=NO1 (stereo not drawn) [Ex. 9]
Eff. % (Plasmopara viticola): 100% | Eff. % (Phytophthora infestans): 94%

COc1ccc(C2CC(c3csc(C4CCN(C(=O)Cn5nc(C(F)F)cc5C)CC4)n3)=NO2)c(OCC2CC2)c1 (stereo not drawn) [Ex. 27]
Log P [a] [1]: 3.5[a]

C=CCOc1cc(Cl)cc(Cl)c1C1CC(c2csc(C3CCN(C(=O)Cn4nc(C(F)F)cc4C)CC3)n2)=NO1 (stereo not drawn) [Ex. 24]
Log P [a] [1]: 3.95[a]; | Log P [b] [1]: 3.97[b];

C#CCOc1cc(Cl)cc(Cl)c1C1CC(c2csc(C3CCN(C(=O)Cn4nc(C(F)F)cc4C)CC3)n2)=NO1 (stereo not drawn) [Ex. 21]
Log P [a] [1]: 3.66[a]; | Log P [b] [1]: 3.57[b]

C#CCOc1cc(C)ccc1C1CC(c2csc(C3CCN(C(=O)Cn4nc(C(F)F)cc4C)CC3)n2)=NO1 (stereo not drawn) [Ex. 23]
Log P [a] [1]: 3.23[a]; | Log P [b] [1]: 3.23[b];

C#CCOc1cccc(F)c1C1(C)CC(c2csc(C3CCN(C(=O)Cn4nc(C)cc4C(F)F)CC3)n2)=NO1 (racemic) [Ex. 37]
Eff. % (Plasmopara viticola): 96% | Eff. % (Phytophthora infestans): 94% | Log P [a] [1]: 3.11[a]; | Log P [b] [1]: 3.12[b];

CC[S+]([O-])Cc1ccccc1C1CC(c2csc(C3CCN(C(=O)Cn4nc(C(F)(F)F)cc4C)CC3)n2)=NO1 (mixture of isomers) [Ex. 36]
Eff. % (Phytophthora infestans): 100% | Log P [a] [1]: 2.53[a]

COCCOCc1ccccc1C1CC(c2csc(C3CCN(C(=O)Cn4nc(C(F)(F)F)cc4C)CC3)n2)=NO1 (racemic) [Ex. 44]
Eff. % (Phytophthora infestans): 94% | Log P [a] [1]: 3.28[a]

C#CCOc1cccc(Cl)c1C1CC(c2csc(C3CCN(C(=O)Cn4nc(C(F)(F)F)cc4C)CC3)n2)=NO1 (stereo not drawn) [Ex. 11]
Eff. % (Plasmopara viticola): 100% | Eff. % (Phytophthora infestans): 85% | Log P [a] [1]: 3.62[a]; | Log P [b] [1]: 3.53[b]

C=CCOc1c(F)cccc1C1CC(c2csc(C3CCN(C(=O)Cn4nc(C(F)(F)F)cc4C)CC3)n2)=NO1 (racemic) [Ex. 52]
Eff. % (Plasmopara viticola): 98% | Eff. % (Phytophthora infestans): 97% | Log P [a] [1]: 3.97[a]; | Log P [b] [1]: 3.84[b]

Cc1cc(C(F)(F)F)nn1CC(=O)N1CCC(c2nc(C3=NOC(c4ccc(OC(=O)C5CC5)cc4)C3)cs2)CC1 (racemic) [Ex. 47]
Eff. % (Plasmopara viticola): 86% | Eff. % (Phytophthora infestans): 100% | Log P [a] [1]: 3.49[a]; | Log P [b] [1]: 3.4[b]

COCCOc1ccccc1C1CC(c2csc(C3CCN(C(=O)Cn4nc(C(F)(F)F)cc4C)CC3)n2)=NO1 (racemic) [Ex. 55]
Eff. % (Plasmopara viticola): 93% | Eff. % (Phytophthora infestans): 92% | Log P [a] [1]: 3.27[a]; | Log P [b] [1]: 3.25[b]

C=CCOc1cc(C)ccc1C1CC(c2csc(C3CCN(C(=O)Cn4nc(C(F)F)cc4C)CC3)n2)=NO1 (stereo not drawn) [Ex. 22]
Log P [a] [1]: 3.62[a]; | Log P [b] [1]: 3.66[b];

C#CCOc1cc(C)ccc1C1CC(c2csc(C3CCN(C(=O)Cn4nc(C(F)(F)F)cc4C)CC3)n2)=NO1 (stereo not drawn) [Ex. 26]
Eff. % (Phytophthora infestans): 100% | Log P [a] [1]: 3.67[a]; | Log P [b] [1]: 3.61[b]

Cc1cc(C(F)(F)F)nn1CC(=O)N1CCC(c2nc(C3=NOC(c4ccccc4NS(C)(=O)=O)C3)cs2)CC1 (stereo not drawn) [Ex. 5, N-(2-{3-[2-(1-{[5-Methyl-3-(trifluoromethyl)-1H-pyrazol-1-yl]acetyl}piperidin-4-yl)-1,3-thiazol-4-yl]-4,5-dihydro-1,2-oxazol-5-yl}phenyl)methanesulphonamide]
Eff. % (Plasmopara viticola): 84% | Eff. % (Phytophthora infestans): 95%

C#CCOc1cccc(F)c1C1CC(c2csc(C3CCN(C(=O)Cn4nc(C(F)F)cc4C)CC3)n2)=NO1 (stereo not drawn) [Ex. 31]
Log P [a] [1]: 2.92[a]

C#CCOc1cccc(C2CC(c3csc(C4CCN(C(=O)Cn5nc(C(F)(F)F)cc5C)CC4)n3)=NO2)c1 (stereo not drawn) [Ex. 10]
Log P [a] [1]: 3.49[a]; | Log P [b] [1]: 3.3[b]

C=CCOc1ccc(F)c(C2CC(c3csc(C4CCN(C(=O)Cn5nc(C(F)(F)F)cc5C)CC4)n3)=NO2)c1F (stereo not drawn) [Ex. 19]
Eff. % (Plasmopara viticola): 98% | Eff. % (Phytophthora infestans): 98%

O=C(Oc1ccccc1C1CC(c2csc(C3CCN(C(=O)Cn4nc(C(F)(F)F)cc4C(F)(F)F)CC3)n2)=NO1)C1CC1 (stereo not drawn) [Ex. 14]
Log P [a] [1]: 4.04[a]

— patent US9512117B2 (priority 2010, dated 2016)
